How the values were obtained:
SF-268 [1] = assay: Cytotoxicity against human SF268 cells assessed as cell growth at 100 uM after 48 hrs by sulforhodamine B assay relative to control; type: functional; conditions: SF-268, 48 h, read-out: Activity
OVCAR-8 [2] = assay: Cytotoxicity against human OVCAR8 cells assessed as cell growth at 10 uM after 48 hrs by sulforhodamine B assay relative to control; type: functional; conditions: OVCAR-8, 48 h, read-out: Activity
HCT-15 = assay: Cytotoxicity against human HCT15 cells assessed as growth inhibition after 48 hrs by sulforhodamine B assay; type: functional; conditions: HCT-15, 48 h
NCI-H23 [3] = assay: Cytotoxicity against human NCI-H23 cells assessed as cell growth at 0.1 uM after 48 hrs by sulforhodamine B assay relative to control; type: functional; conditions: NCI-H23, 48 h, read-out: Activity
MOLT-4 = assay: Cytotoxicity against human MOLT4 cells assessed as cell growth at 0.01 uM after 48 hrs by sulforhodamine B assay relative to control; type: functional; conditions: MOLT-4, 48 h, read-out: Activity
MDA-MB-231 [4] = assay: Cytotoxicity against human MDA-MB-231 cells assessed as cell growth at 0.01 uM after 48 hrs by sulforhodamine B assay relative to control; type: functional; conditions: MDA-MB-231, 48 h, read-out: Activity
UACC-257 = assay: Cytotoxicity against human UACC257 cells assessed as growth inhibition after 48 hrs by sulforhodamine B assay; type: functional; conditions: UACC-257, 48 h
HL-60(TB) = assay: Cytotoxicity against human HL-60(TB) cells assessed as cell growth at 10 uM after 48 hrs by sulforhodamine B assay relative to control; type: functional; conditions: HL-60, 48 h, read-out: Activity
A498 = assay: Cytotoxicity against human A498 cells assessed as cell growth at 10 uM after 48 hrs by sulforhodamine B assay relative to control; type: functional; conditions: A498, 48 h, read-out: Activity
OVCAR-8 [5] = assay: Cytotoxicity against human OVCAR8 cells assessed as cell growth at 0.01 uM after 48 hrs by sulforhodamine B assay relative to control; type: functional; conditions: OVCAR-8, 48 h, read-out: Activity
SR = assay: Cytotoxicity against human SR cells assessed as cell growth at 0.1 uM after 48 hrs by sulforhodamine B assay relative to control; type: functional; conditions: read-out: Activity
HCC 2998 = assay: Cytotoxicity against human HCC2998 cells assessed as cell growth at 10 uM after 48 hrs by sulforhodamine B assay relative to control; type: functional; conditions: HCC 2998, 48 h, read-out: Activity
UACC-62 = assay: Cytotoxicity against human UACC62 cells assessed as cell growth at 0.01 uM after 48 hrs by sulforhodamine B assay relative to control; type: functional; conditions: UACC-62, 48 h, read-out: Activity
MDA-MB-231 [6] = assay: Cytotoxicity against human MDA-MB-231 cells assessed as growth inhibition after 48 hrs by MTT assay; type: functional, cell-based; conditions: MDA-MB-231, 48 h
OVCAR-8 [7] = assay: Cytotoxicity against human OVCAR8 cells assessed as cell growth at 1 uM after 48 hrs by sulforhodamine B assay relative to control; type: functional; conditions: OVCAR-8, 48 h, read-out: Activity
MDA-MB-435 = assay: Cytotoxicity against human MDA-MB-435 cells assessed as cell growth at 0.1 uM after 48 hrs by sulforhodamine B assay relative to control; type: functional; conditions: MDA-MB-435, 48 h, read-out: Activity
COLO 205 [8] = assay: Cytotoxicity against human COLO205 cells assessed as cell growth at 0.01 uM after 48 hrs by sulforhodamine B assay relative to control; type: functional; conditions: COLO 205, 48 h, read-out: Activity
SN12C = assay: Cytotoxicity against human SN12C cells assessed as cell growth at 10 uM after 48 hrs by sulforhodamine B assay relative to control; type: functional; conditions: read-out: Activity
PC-3 = assay: Cytotoxicity against human PC3 cells assessed as cell growth at 1 uM after 48 hrs by sulforhodamine B assay relative to control; type: functional; conditions: PC-3, 48 h, read-out: Activity
MDA-MB-468 [9] = assay: Cytotoxicity against human MDA-MB-468 cells assessed as cell growth at 0.1 uM after 48 hrs by sulforhodamine B assay relative to control; type: functional; conditions: MDA-MB-468, 48 h, read-out: Activity
SK-MEL-28 [10] = assay: Cytotoxicity against human SK-MEL-28 cells assessed as cell growth at 0.01 uM after 48 hrs by sulforhodamine B assay relative to control; type: functional; conditions: SK-MEL-28, 48 h, read-out: Activity
BT-549 = assay: Cytotoxicity against human BT549 cells assessed as cell growth at 10 uM after 48 hrs by sulforhodamine B assay relative to control; type: functional; conditions: BT-549, 48 h, read-out: Activity
MDA-MB-231 [11] = assay: Cytotoxicity against human MDA-MB-231 cells assessed as cell growth at 0.1 uM after 48 hrs by sulforhodamine B assay relative to control; type: functional; conditions: MDA-MB-231, 48 h, read-out: Activity
COLO 205 [12] = assay: Cytotoxicity against human COLO205 cells assessed as growth inhibition after 48 hrs by sulforhodamine B assay; type: functional; conditions: COLO 205, 48 h
SK-MEL-28 [13] = assay: Cytotoxicity against human SK-MEL-28 cells assessed as cell growth at 10 uM after 48 hrs by sulforhodamine B assay relative to control; type: functional; conditions: SK-MEL-28, 48 h, read-out: Activity
SF-268 [14] = assay: Cytotoxicity against human SF268 cells assessed as cell growth at 0.01 uM after 48 hrs by sulforhodamine B assay relative to control; type: functional; conditions: SF-268, 48 h, read-out: Activity
MDA-MB-231 [15] = assay: Cytotoxicity against human MDA-MB-231 cells assessed as cell growth at 10 uM after 48 hrs by sulforhodamine B assay relative to control; type: functional; conditions: MDA-MB-231, 48 h, read-out: Activity
K562 = assay: Cytotoxicity against human K562 cells assessed as cell growth at 100 uM after 48 hrs by sulforhodamine B assay relative to control; type: functional; conditions: K562, 48 h, read-out: Activity
Hs-578T = assay: Cytotoxicity against human Hs 578T cells assessed as cell growth at 0.01 uM after 48 hrs by sulforhodamine B assay relative to control; type: functional; conditions: read-out: Activity
ACHN = assay: Cytotoxicity against human ACHN cells assessed as cell growth at 0.1 uM after 48 hrs by sulforhodamine B assay relative to control; type: functional; conditions: read-out: Activity
MDA-MB-468 [16] = assay: Cytotoxicity against human MDA-MB-468 cells assessed as cell growth at 0.01 uM after 48 hrs by sulforhodamine B assay relative to control; type: functional; conditions: MDA-MB-468, 48 h, read-out: Activity
NCI-H23 [17] = assay: Cytotoxicity against human NCI-H23 cells assessed as cell growth at 1 uM after 48 hrs by sulforhodamine B assay relative to control; type: functional; conditions: NCI-H23, 48 h, read-out: Activity
KM12 = assay: Cytotoxicity against human KM12 cells assessed as cell growth at 10 uM after 48 hrs by sulforhodamine B assay relative to control; type: functional; conditions: KM12, 48 h, read-out: Activity
HCT-116 = assay: Cytotoxicity against human HCT116 cells assessed as cell growth at 100 uM after 48 hrs by sulforhodamine B assay relative to control; type: functional; conditions: HCT-116, 48 h, read-out: Activity
U-251 = assay: Cytotoxicity against human U251 cells assessed as growth inhibition after 48 hrs by sulforhodamine B assay; type: functional; conditions: U-251, 48 h
OVCAR-3 = assay: Cytotoxicity against human OVCAR3 cells assessed as cell growth at 10 uM after 48 hrs by sulforhodamine B assay relative to control; type: functional; conditions: OVCAR-3, 48 h, read-out: Activity

COc1cc(-c2cc(/C=C/C(=O)c3ccc4c(c3)OCO4)[nH]n2)cc(OC)c1OC showed a growth at 100 µM (SF-268 [1]) of -26%, a growth at 10 µM (OVCAR-8 [2]) of 2% and an LC50 (HCT-15) greater than 100 µM. It also gave a TGI (HCT-15) of 7.19 µM, a growth at 0.1 µM (NCI-H23 [3]) of 93% and a growth at 0.01 µM (MOLT-4) of 97%. It also gave a growth at 0.01 µM (MDA-MB-231 [4]) of 101%, an LC50 (UACC-257) greater than 100 µM and a TGI (UACC-257) of 40.3 µM. For the same molecule, the growth at 10 µM (HL-60(TB)) was -21%, the growth at 10 µM (A498) was 9% and the growth at 0.01 µM (OVCAR-8 [5]) was 99%. For the same molecule, the growth at 0.1 µM (SR) was 101%, the growth at 10 µM (HCC 2998) was -87% and the growth at 0.01 µM (UACC-62) was 98%. The IC50 (MDA-MB-231 [6]) was 1.72 µM, the growth at 1 µM (OVCAR-8 [7]) was 91% and the growth at 0.1 µM (MDA-MB-435) was 94%. For the same molecule, the growth at 0.01 µM (COLO 205 [8]) was 105%, the growth at 10 µM (SN12C) was 22% and the growth at 1 µM (PC-3) was 86%. The growth at 0.1 µM (MDA-MB-468 [9]) was 90%, the growth at 0.01 µM (SK-MEL-28 [10]) was 100% and the growth at 10 µM (BT-549) was -20%. For the same molecule, the growth at 0.1 µM (MDA-MB-231 [11]) was 103%, the LC50 (COLO 205 [12]) was 7.92 µM and the TGI (COLO 205 [12]) was 3.85 µM. It also gave a growth at 10 µM (SK-MEL-28 [13]) of -14%, a growth at 0.01 µM (SF-268 [14]) of 91% and a growth at 10 µM (MDA-MB-231 [15]) of 20%. The growth at 100 µM (K562) was -10%, the growth at 0.01 µM (Hs-578T) was 93% and the growth at 0.1 µM (ACHN) was 109%. For the same molecule, the growth at 0.01 µM (MDA-MB-468 [16]) was 90%, the growth at 1 µM (NCI-H23 [17]) was 97% and the growth at 10 µM (KM12) was -69%. It also gave a growth at 100 µM (HCT-116) of 1%, an LC50 (U-251) of 59.5 µM and a TGI (U-251) of 5.45 µM. The growth at 10 µM (OVCAR-3) was 4%.

COc1ccc(-c2cc(/C=C/C(=O)c3cc(OC)c(OC)c(OC)c3)[nH]n2)cc1OC was tested, and the growth at 100 µM (SF-268 [1]) was -72%, the growth at 10 µM (OVCAR-8 [2]) was 6% and the GI50 (HCT-15) was 1.19 µM. It also gave an LC50 (HCT-15) greater than 100 µM, a TGI (HCT-15) of 3.85 µM and a growth at 0.1 µM (NCI-H23 [3]) of 95%. For the same molecule, the growth at 0.01 µM (MOLT-4) was 99%, the growth at 0.01 µM (MDA-MB-231 [4]) was 98% and the GI50 (UACC-257) was 1.79 µM. The LC50 (UACC-257) was 8.05 µM, the TGI (UACC-257) was 3.8 µM and the growth at 10 µM (HL-60(TB)) was 2%. For the same molecule, the growth at 10 µM (A498) was -28%, the growth at 0.01 µM (OVCAR-8 [5]) was 100% and the growth at 0.1 µM (SR) was 73%. For the same molecule, the growth at 10 µM (HCC 2998) was -93%, the growth at 0.01 µM (UACC-62) was 96% and the IC50 (MDA-MB-231 [6]) was 2 µM. For the same molecule, the growth at 1 µM (OVCAR-8 [7]) was 80%, the growth at 0.1 µM (MDA-MB-435) was 91% and the growth at 0.01 µM (COLO 205 [8]) was 99%. For the same molecule, the growth at 10 µM (SN12C) was -62%, the growth at 1 µM (PC-3) was 71% and the growth at 0.1 µM (MDA-MB-468 [9]) was 91%. The growth at 0.01 µM (SK-MEL-28 [10]) was 95%, the growth at 10 µM (BT-549) was -80% and the growth at 0.1 µM (MDA-MB-231 [11]) was 93%. The GI50 (COLO 205 [12]) was 1.75 µM, the LC50 (COLO 205 [12]) was 7.28 µM and the TGI (COLO 205 [12]) was 3.57 µM. It also gave a growth at 10 µM (SK-MEL-28 [13]) of -49%, a growth at 0.01 µM (SF-268 [14]) of 99% and a growth at 10 µM (MDA-MB-231 [15]) of 11%. For the same molecule, the growth at 100 µM (K562) was -16%, the growth at 0.01 µM (Hs-578T) was 95% and the growth at 0.1 µM (ACHN) was 91%. It also gave a growth at 0.01 µM (MDA-MB-468 [16]) of 98%, a growth at 1 µM (NCI-H23 [17]) of 87% and a growth at 10 µM (KM12) of -81%. The growth at 100 µM (HCT-116) was -61%, the GI50 (U-251) was 1.24 µM and the LC50 (U-251) was 5.13 µM. It also gave a TGI (U-251) of 2.53 µM and a growth at 10 µM (OVCAR-3) of -85%.

— ChEMBL document CHEMBL4138123, “Design, synthesis and biological evaluation of novel pyrazolochalcones as potential modulators of PI3K/Akt/mTOR pathway and inducers of apoptosis in breast cancer cells” (Eur J Med Chem, 2017)
